Tests used:
Type in all cases: cell-based
GSPT1 = target: T1, GSPT1 (Homo sapiens, UniProt P15170+Q96SW2); assay: Western blot degradation of GSPT1 in hPBMC
T1 construct: endogenous in cells; host or cells: hPBMC
Method in brief: (§1)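 Compound-treated hPBMC lysates were denatured in SDS loading buffer at 95° C for 5 minutes, run on SDS-PAGE and blotted to nitrocellulose. DC50 is the concentration giving band grayscale half that of DMSO controls, from a fitted concentration-response curve; remaining protein is band intensity normalized to an internal control protein.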

IKZF3 = target: T2, IKZF3 (Homo sapiens, UniProt Q96SW2+Q9UKT9); assay: Western blot degradation of IKZF3 in hPBMC
T2 construct: endogenous in cells; host or cells: hPBMC
T2 sequence (Q9UKT9 whole entry): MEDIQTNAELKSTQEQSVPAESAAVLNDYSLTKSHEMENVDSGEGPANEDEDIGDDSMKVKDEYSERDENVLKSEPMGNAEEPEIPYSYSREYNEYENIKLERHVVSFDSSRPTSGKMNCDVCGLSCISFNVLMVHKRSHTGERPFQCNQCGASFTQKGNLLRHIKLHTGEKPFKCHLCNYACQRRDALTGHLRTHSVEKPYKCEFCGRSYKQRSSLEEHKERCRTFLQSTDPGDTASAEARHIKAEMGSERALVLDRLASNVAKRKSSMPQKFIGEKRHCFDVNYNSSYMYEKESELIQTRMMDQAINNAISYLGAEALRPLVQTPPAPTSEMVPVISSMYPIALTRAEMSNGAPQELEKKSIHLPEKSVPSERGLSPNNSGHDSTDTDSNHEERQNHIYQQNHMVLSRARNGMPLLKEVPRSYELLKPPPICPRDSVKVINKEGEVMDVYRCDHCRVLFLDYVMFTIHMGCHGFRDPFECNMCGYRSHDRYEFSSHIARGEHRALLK
T2 sequence (Q96SW2 whole entry): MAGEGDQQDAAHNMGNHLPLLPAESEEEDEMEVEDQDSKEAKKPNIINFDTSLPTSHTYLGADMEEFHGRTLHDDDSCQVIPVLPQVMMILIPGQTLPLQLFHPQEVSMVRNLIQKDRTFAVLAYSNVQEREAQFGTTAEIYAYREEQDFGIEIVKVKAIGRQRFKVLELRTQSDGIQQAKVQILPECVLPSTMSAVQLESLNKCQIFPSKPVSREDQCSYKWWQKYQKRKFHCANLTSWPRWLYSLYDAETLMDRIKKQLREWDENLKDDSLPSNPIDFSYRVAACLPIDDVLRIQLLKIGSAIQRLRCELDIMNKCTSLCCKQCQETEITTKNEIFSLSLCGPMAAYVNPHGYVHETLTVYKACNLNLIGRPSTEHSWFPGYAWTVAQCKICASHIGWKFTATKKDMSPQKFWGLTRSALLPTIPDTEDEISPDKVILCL
T2 sequence (Q16531 whole entry partner): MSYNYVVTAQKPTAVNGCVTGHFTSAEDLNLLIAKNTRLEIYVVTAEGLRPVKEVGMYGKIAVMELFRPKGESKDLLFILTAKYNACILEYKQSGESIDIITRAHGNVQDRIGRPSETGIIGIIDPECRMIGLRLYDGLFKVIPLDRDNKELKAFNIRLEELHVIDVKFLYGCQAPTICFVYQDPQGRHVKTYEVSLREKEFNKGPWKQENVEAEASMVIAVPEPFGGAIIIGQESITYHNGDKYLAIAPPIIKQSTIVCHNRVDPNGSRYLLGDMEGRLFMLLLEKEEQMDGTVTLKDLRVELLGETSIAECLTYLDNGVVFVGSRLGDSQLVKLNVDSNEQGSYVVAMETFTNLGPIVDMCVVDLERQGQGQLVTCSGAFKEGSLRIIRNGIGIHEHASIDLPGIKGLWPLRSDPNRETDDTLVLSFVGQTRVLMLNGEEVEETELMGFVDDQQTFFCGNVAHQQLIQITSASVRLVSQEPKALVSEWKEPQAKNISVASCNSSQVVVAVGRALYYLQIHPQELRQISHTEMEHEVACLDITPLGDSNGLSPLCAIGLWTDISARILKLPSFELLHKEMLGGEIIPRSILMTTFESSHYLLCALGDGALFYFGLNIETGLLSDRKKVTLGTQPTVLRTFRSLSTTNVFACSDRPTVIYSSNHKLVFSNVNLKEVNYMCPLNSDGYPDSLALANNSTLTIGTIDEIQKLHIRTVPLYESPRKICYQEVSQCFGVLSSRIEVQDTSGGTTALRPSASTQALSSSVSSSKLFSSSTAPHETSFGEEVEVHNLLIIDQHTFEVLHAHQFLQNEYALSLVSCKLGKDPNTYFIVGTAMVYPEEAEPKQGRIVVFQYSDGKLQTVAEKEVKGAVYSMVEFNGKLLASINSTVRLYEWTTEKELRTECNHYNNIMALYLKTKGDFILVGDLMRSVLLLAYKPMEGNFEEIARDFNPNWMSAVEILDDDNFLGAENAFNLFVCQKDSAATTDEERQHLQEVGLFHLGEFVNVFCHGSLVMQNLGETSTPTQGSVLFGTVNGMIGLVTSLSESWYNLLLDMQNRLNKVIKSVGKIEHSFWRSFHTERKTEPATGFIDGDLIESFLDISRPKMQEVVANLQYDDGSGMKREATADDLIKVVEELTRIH
Method in brief: as §1

IKZF1 = target: T3, IKZF1 (Homo sapiens, UniProt Q13422+Q96SW2); assay: Western blot degradation of IKZF1 in hPBMC
T3 construct: endogenous in cells; host or cells: hPBMC
T3 sequence (Q13422 whole entry): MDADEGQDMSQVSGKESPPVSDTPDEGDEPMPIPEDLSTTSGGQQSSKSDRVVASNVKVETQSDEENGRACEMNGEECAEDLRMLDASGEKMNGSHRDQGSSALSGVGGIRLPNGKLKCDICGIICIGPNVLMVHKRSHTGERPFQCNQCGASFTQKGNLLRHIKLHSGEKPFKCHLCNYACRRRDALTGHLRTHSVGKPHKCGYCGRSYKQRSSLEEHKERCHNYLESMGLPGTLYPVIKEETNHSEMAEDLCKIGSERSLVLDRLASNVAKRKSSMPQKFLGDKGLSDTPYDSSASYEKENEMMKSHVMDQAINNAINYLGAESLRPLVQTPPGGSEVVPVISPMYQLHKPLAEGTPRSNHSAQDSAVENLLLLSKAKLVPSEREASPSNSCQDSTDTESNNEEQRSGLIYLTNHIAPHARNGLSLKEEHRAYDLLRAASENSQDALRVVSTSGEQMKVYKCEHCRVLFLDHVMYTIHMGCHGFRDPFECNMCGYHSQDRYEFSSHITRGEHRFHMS
T3 sequence (Q96SW2 whole entry): as the sequence (Q96SW2 whole entry) above
T3 sequence (Q16531 whole entry partner): as the sequence (Q16531 whole entry partner) above
Method in brief: as §1

CK1a = target: T4, CK1a (Homo sapiens, UniProt P48729+Q96SW2); assay: Western blot degradation of CK1a in hPBMC
T4 construct: endogenous in cells; host or cells: hPBMC
T4 sequence (P48729 whole entry): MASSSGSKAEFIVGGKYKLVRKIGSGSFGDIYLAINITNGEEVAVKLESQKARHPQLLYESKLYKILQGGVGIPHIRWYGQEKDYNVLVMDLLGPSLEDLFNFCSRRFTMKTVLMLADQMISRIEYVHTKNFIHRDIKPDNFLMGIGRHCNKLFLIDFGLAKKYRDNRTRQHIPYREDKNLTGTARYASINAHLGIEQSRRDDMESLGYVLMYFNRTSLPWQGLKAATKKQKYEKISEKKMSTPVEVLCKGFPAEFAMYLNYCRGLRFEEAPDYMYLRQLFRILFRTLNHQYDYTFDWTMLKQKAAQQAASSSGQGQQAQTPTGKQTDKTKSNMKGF
T4 sequence (Q96SW2 whole entry): as the sequence (Q96SW2 whole entry) above
T4 sequence (Q16531 whole entry partner): as the sequence (Q16531 whole entry partner) above
Method in brief: as §1

WEE1 = target: T5, WEE1 (Homo sapiens, UniProt P30291+Q96SW2); assay: Western blot degradation of WEE1 in hPBMC
T5 construct: endogenous in cells; host or cells: hPBMC
T5 sequence (P30291 whole entry): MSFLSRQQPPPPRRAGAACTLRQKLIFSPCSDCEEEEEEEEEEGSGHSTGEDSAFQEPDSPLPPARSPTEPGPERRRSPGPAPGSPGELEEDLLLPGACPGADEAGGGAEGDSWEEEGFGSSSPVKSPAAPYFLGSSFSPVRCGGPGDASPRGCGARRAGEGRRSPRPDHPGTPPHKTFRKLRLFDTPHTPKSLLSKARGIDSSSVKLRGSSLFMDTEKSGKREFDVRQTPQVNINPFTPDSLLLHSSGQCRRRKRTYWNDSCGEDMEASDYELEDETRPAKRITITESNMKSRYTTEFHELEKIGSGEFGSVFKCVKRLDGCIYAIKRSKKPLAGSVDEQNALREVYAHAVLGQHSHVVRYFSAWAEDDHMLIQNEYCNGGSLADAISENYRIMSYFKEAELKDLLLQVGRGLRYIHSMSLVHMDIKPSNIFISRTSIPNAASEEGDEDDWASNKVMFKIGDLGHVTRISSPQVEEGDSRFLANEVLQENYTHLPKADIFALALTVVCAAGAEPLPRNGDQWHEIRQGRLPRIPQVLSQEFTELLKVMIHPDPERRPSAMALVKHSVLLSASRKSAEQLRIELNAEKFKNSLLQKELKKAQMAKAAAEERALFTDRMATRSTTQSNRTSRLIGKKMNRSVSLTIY
T5 sequence (Q96SW2 whole entry): as the sequence (Q96SW2 whole entry) above
T5 sequence (Q16531 whole entry partner): as the sequence (Q16531 whole entry partner) above
Method in brief: as §1

IKZF2 = target: T6, IKZF2 (Homo sapiens, UniProt Q96SW2+Q9UKS7); assay: Western blot degradation of IKZF2 in hPBMC
T6 construct: endogenous in cells; host or cells: hPBMC
T6 sequence (Q9UKS7 whole entry): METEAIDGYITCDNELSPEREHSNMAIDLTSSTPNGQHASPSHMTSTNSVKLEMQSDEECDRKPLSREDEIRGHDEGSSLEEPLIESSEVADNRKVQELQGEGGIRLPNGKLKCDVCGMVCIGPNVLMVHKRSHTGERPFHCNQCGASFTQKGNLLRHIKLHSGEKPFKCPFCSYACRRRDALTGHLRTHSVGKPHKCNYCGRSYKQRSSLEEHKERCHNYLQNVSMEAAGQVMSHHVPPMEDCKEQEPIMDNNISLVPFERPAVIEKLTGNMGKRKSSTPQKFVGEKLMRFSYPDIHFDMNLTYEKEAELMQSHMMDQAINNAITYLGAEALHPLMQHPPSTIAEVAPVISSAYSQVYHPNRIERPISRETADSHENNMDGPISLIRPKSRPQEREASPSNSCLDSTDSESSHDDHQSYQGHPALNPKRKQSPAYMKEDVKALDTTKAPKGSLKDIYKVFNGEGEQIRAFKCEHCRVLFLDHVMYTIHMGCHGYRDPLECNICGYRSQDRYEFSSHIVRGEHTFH
T6 sequence (Q96SW2 whole entry): as the sequence (Q96SW2 whole entry) above
T6 sequence (Q16531 whole entry partner): as the sequence (Q16531 whole entry partner) above
Method in brief: as §1

O=C1CCN(c2cnc(CCl)c(F)c2)C(=O)N1 [GT-07557, 1-(6-(chloromethyl)-5-fluoropyridin-3-yl)dihydropyrimidine-2,4(1H,3H)-dione]
Degradation of substrate protein GSPT1 (substrate protein remaining %) (GSPT1): B (B is defined as substrate protein remaining % > 80%) | Degradation of substrate protein IKZF3 (substrate protein remaining %) (IKZF3): B (B is defined as substrate protein remaining % > 80%) | Degradation of substrate protein IKZF1 (substrate protein remaining %) (IKZF1): A (A is defined as 0% ≤ substrate protein remaining % ≤ 80%) | Degradation of substrate protein CK1a (substrate protein remaining %) (CK1a): A (A is defined as 0% ≤ substrate protein remaining % ≤ 80%) | Degradation of substrate protein WEE1 (substrate protein remaining %) (WEE1): A (A is defined as 0% ≤ substrate protein remaining % ≤ 80%) | Degradation of substrate protein IKZF2 (substrate protein remaining %) (IKZF2): B (B is defined as substrate protein remaining % > 80%)

O=C1CCC(c2ccc(CO)nc2F)C(=O)N1 (stereo not drawn) [GT-07558, 3-(2-fluoro-6-(hydroxymethyl)pyridin-3-yl)piperidine-2,6-dione]
Degradation of substrate protein GSPT1 (substrate protein remaining %) (GSPT1): B (B is defined as substrate protein remaining % > 80%) | Degradation of substrate protein IKZF3 (substrate protein remaining %) (IKZF3): B (B is defined as substrate protein remaining % > 80%) | Degradation of substrate protein IKZF1 (substrate protein remaining %) (IKZF1): A (A is defined as 0% ≤ substrate protein remaining % ≤ 80%) | Degradation of substrate protein CK1a (substrate protein remaining %) (CK1a): A (A is defined as 0% ≤ substrate protein remaining % ≤ 80%) | Degradation of substrate protein WEE1 (substrate protein remaining %) (WEE1): A (A is defined as 0% ≤ substrate protein remaining % ≤ 80%) | Degradation of substrate protein IKZF2 (substrate protein remaining %) (IKZF2): B (B is defined as substrate protein remaining % > 80%)

O=C1CCC(Nc2cnccc2CO)C(=O)N1 (stereo not drawn) [GT-07559, 3-((4-(hydroxymethyl)pyridin-3-yl)amino)piperidine-2,6-dione]
Degradation of substrate protein GSPT1 (substrate protein remaining %) (GSPT1): A (A is defined as 0% ≤ substrate protein remaining % ≤ 80%) | Degradation of substrate protein IKZF3 (substrate protein remaining %) (IKZF3): A (A is defined as 0% ≤ substrate protein remaining % ≤ 80%) | Degradation of substrate protein IKZF1 (substrate protein remaining %) (IKZF1): A (A is defined as 0% ≤ substrate protein remaining % ≤ 80%) | Degradation of substrate protein CK1a (substrate protein remaining %) (CK1a): A (A is defined as 0% ≤ substrate protein remaining % ≤ 80%) | Degradation of substrate protein WEE1 (substrate protein remaining %) (WEE1): A (A is defined as 0% ≤ substrate protein remaining % ≤ 80%) | Degradation of substrate protein IKZF2 (substrate protein remaining %) (IKZF2): A (A is defined as 0% ≤ substrate protein remaining % ≤ 80%)

O=C1CCN(c2cncc(CO)n2)C(=O)N1 [GT-07632, 1-(6-(hydroxymethyl)pyrazin-2-yl)dihydropyrimidine-2,4(1H,3H)-dione]
Degradation of substrate protein GSPT1 (substrate protein remaining %) (GSPT1): B (B is defined as substrate protein remaining % > 80%) | Degradation of substrate protein IKZF3 (substrate protein remaining %) (IKZF3): A (A is defined as 0% ≤ substrate protein remaining % ≤ 80%) | Degradation of substrate protein IKZF1 (substrate protein remaining %) (IKZF1): A (A is defined as 0% ≤ substrate protein remaining % ≤ 80%) | Degradation of substrate protein CK1a (substrate protein remaining %) (CK1a): A (A is defined as 0% ≤ substrate protein remaining % ≤ 80%) | Degradation of substrate protein WEE1 (substrate protein remaining %) (WEE1): A (A is defined as 0% ≤ substrate protein remaining % ≤ 80%) | Degradation of substrate protein IKZF2 (substrate protein remaining %) (IKZF2): A (A is defined as 0% ≤ substrate protein remaining % ≤ 80%)

O=C1CCN(c2cnc(F)c(CCl)c2)C(=O)N1 [GT-07633, 1-(5-(chloromethyl)-6-fluoropyridin-3-yl)dihydropyrimidine-2,4(1H,3H)-dione]
Degradation of substrate protein GSPT1 (substrate protein remaining %) (GSPT1): B (B is defined as substrate protein remaining % > 80%) | Degradation of substrate protein IKZF3 (substrate protein remaining %) (IKZF3): B (B is defined as substrate protein remaining % > 80%) | Degradation of substrate protein IKZF1 (substrate protein remaining %) (IKZF1): B (B is defined as substrate protein remaining % > 80%) | Degradation of substrate protein CK1a (substrate protein remaining %) (CK1a): A (A is defined as 0% ≤ substrate protein remaining % ≤ 80%) | Degradation of substrate protein WEE1 (substrate protein remaining %) (WEE1): A (A is defined as 0% ≤ substrate protein remaining % ≤ 80%) | Degradation of substrate protein IKZF2 (substrate protein remaining %) (IKZF2): A (A is defined as 0% ≤ substrate protein remaining % ≤ 80%)

O=C1CCN(c2cnc(CO)cn2)C(=O)N1 [GT-07634, 1-(5-(hydroxymethyl)pyrazin-2-yl)dihydropyrimidine-2,4(1H,3H)-dione]
Degradation of substrate protein GSPT1 (substrate protein remaining %) (GSPT1): B (B is defined as substrate protein remaining % > 80%) | Degradation of substrate protein IKZF3 (substrate protein remaining %) (IKZF3): A (A is defined as 0% ≤ substrate protein remaining % ≤ 80%) | Degradation of substrate protein IKZF1 (substrate protein remaining %) (IKZF1): A (A is defined as 0% ≤ substrate protein remaining % ≤ 80%) | Degradation of substrate protein CK1a (substrate protein remaining %) (CK1a): A (A is defined as 0% ≤ substrate protein remaining % ≤ 80%) | Degradation of substrate protein WEE1 (substrate protein remaining %) (WEE1): A (A is defined as 0% ≤ substrate protein remaining % ≤ 80%) | Degradation of substrate protein IKZF2 (substrate protein remaining %) (IKZF2): A (A is defined as 0% ≤ substrate protein remaining % ≤ 80%)

O=C1CCN(c2cnc(CCl)cn2)C(=O)N1 [GT-07635, 1-(5-(chloromethyl)pyrazin-2-yl)dihydropyrimidine-2,4(1H,3H)-dione]
Degradation of substrate protein GSPT1 (substrate protein remaining %) (GSPT1): B (B is defined as substrate protein remaining % > 80%) | Degradation of substrate protein IKZF3 (substrate protein remaining %) (IKZF3): A (A is defined as 0% ≤ substrate protein remaining % ≤ 80%) | Degradation of substrate protein IKZF1 (substrate protein remaining %) (IKZF1): A (A is defined as 0% ≤ substrate protein remaining % ≤ 80%) | Degradation of substrate protein CK1a (substrate protein remaining %) (CK1a): A (A is defined as 0% ≤ substrate protein remaining % ≤ 80%) | Degradation of substrate protein WEE1 (substrate protein remaining %) (WEE1): A (A is defined as 0% ≤ substrate protein remaining % ≤ 80%) | Degradation of substrate protein IKZF2 (substrate protein remaining %) (IKZF2): A (A is defined as 0% ≤ substrate protein remaining % ≤ 80%)

O=C1CCC(c2ccc(CO)nn2)C(=O)N1 (stereo not drawn) [GT-07636, 3-(6-(hydroxymethyl)pyridazin-3-yl)piperidine-2,6-dione]
Degradation of substrate protein GSPT1 (substrate protein remaining %) (GSPT1): A (A is defined as 0% ≤ substrate protein remaining % ≤ 80%) | Degradation of substrate protein IKZF3 (substrate protein remaining %) (IKZF3): A (A is defined as 0% ≤ substrate protein remaining % ≤ 80%) | Degradation of substrate protein IKZF1 (substrate protein remaining %) (IKZF1): A (A is defined as 0% ≤ substrate protein remaining % ≤ 80%) | Degradation of substrate protein CK1a (substrate protein remaining %) (CK1a): B (B is defined as substrate protein remaining % > 80%) | Degradation of substrate protein WEE1 (substrate protein remaining %) (WEE1): B (B is defined as substrate protein remaining % > 80%) | Degradation of substrate protein IKZF2 (substrate protein remaining %) (IKZF2): A (A is defined as 0% ≤ substrate protein remaining % ≤ 80%)

CC(C)(C)[Si](C)(C)OCc1ccncc1NC1CCC(=O)NC1=O (stereo not drawn) [GT-07638, 3-((4-(((tert-butyldimethylsilyl)oxy)methyl)pyridin-3-yl)amino)piperidine-2,6-dione]
Degradation of substrate protein GSPT1 (substrate protein remaining %) (GSPT1): A (A is defined as 0% ≤ substrate protein remaining % ≤ 80%) | Degradation of substrate protein IKZF3 (substrate protein remaining %) (IKZF3): A (A is defined as 0% ≤ substrate protein remaining % ≤ 80%) | Degradation of substrate protein IKZF1 (substrate protein remaining %) (IKZF1): B (B is defined as substrate protein remaining % > 80%) | Degradation of substrate protein CK1a (substrate protein remaining %) (CK1a): B (B is defined as substrate protein remaining % > 80%) | Degradation of substrate protein WEE1 (substrate protein remaining %) (WEE1): A (A is defined as 0% ≤ substrate protein remaining % ≤ 80%) | Degradation of substrate protein IKZF2 (substrate protein remaining %) (IKZF2): A (A is defined as 0% ≤ substrate protein remaining % ≤ 80%)

CC(C)(C)[Si](C)(C)OCc1cncnc1NC1CCC(=O)NC1=O (stereo not drawn) [GT-07639, 3-((5-(((tert-butyldimethylsilyl)oxy)methyl)pyrimidin-4-yl)amino)piperidine-2,6-dione]
Degradation of substrate protein GSPT1 (substrate protein remaining %) (GSPT1): A (A is defined as 0% ≤ substrate protein remaining % ≤ 80%) | Degradation of substrate protein IKZF3 (substrate protein remaining %) (IKZF3): A (A is defined as 0% ≤ substrate protein remaining % ≤ 80%) | Degradation of substrate protein IKZF1 (substrate protein remaining %) (IKZF1): A (A is defined as 0% ≤ substrate protein remaining % ≤ 80%) | Degradation of substrate protein CK1a (substrate protein remaining %) (CK1a): A (A is defined as 0% ≤ substrate protein remaining % ≤ 80%) | Degradation of substrate protein WEE1 (substrate protein remaining %) (WEE1): A (A is defined as 0% ≤ substrate protein remaining % ≤ 80%) | Degradation of substrate protein IKZF2 (substrate protein remaining %) (IKZF2): A (A is defined as 0% ≤ substrate protein remaining % ≤ 80%)

O=Cc1ccc(NC2CCC(=O)NC2=O)cn1 (stereo not drawn) [GT-07640, 5-((2,6-dioxopiperidin-3-yl)amino)picolinaldehyde]
Degradation of substrate protein GSPT1 (substrate protein remaining %) (GSPT1): A (A is defined as 0% ≤ substrate protein remaining % ≤ 80%) | Degradation of substrate protein IKZF3 (substrate protein remaining %) (IKZF3): A (A is defined as 0% ≤ substrate protein remaining % ≤ 80%) | Degradation of substrate protein IKZF1 (substrate protein remaining %) (IKZF1): A (A is defined as 0% ≤ substrate protein remaining % ≤ 80%) | Degradation of substrate protein CK1a (substrate protein remaining %) (CK1a): B (B is defined as substrate protein remaining % > 80%) | Degradation of substrate protein WEE1 (substrate protein remaining %) (WEE1): A (A is defined as 0% ≤ substrate protein remaining % ≤ 80%) | Degradation of substrate protein IKZF2 (substrate protein remaining %) (IKZF2): A (A is defined as 0% ≤ substrate protein remaining % ≤ 80%)

— patent publication US20260274829A1, “NEW E3 UBIQUITIN LIGASE LIGAND, PROTEIN DEGRADATION AGENT AND USE THEREOF” (GLUETACS THERAPEUTICS (SHANGHAI) CO., LTD., priority 2023, published 2026)
